{"source": "patent US10723724B2", "about": "“Compounds for treating degenerative diseases of central nervous system or brain tumor, and uses thereof” (SUN YAT-SEN UNIVERSITY, priority 2016, dated 2020)", "type_in_all_cases": "biochemical", "key": {"MAPK10 (JNK3)": {"molecular_target": "T1, MAPK10 (JNK3) (Homo sapiens, UniProt P53779)", "T1 construct": "purchased Life Technologies Corporation (kinase screening service)", "T1 sequence (P53779 whole entry)": "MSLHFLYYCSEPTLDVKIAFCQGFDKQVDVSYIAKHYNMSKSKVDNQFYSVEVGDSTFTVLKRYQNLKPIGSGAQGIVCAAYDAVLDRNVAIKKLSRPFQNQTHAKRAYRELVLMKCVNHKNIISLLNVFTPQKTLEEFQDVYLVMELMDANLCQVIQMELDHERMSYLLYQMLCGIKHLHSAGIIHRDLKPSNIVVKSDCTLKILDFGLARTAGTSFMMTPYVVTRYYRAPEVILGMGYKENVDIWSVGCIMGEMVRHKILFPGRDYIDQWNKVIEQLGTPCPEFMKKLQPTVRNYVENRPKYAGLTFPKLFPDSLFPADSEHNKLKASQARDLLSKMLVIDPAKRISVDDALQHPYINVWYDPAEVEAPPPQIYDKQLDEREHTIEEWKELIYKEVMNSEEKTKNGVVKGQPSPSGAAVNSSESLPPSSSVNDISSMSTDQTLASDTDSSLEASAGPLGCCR", "assay": "Kinase screening service (Life Technologies): JNK3", "conditions": "average of duplicates", "experimental": "(§1) The inhibitory effect of PT109 on SGK and INK was detected by the kinase screening commercialization service of Life Technologies Corporation.\n(§2) The inhibitory effect of PT109 on other kinases including SGK and JNK was detected by the Kinase Screening Service of Life Technologies Corporation (The concentration of compound 9 was 10 μM, measurements were performed in duplicates, and the value was represented by an average) to investigate the selectivity of the compound for JNK and SGK1."}, "SGK (SGK1) [1]": {"molecular_target": "T2, SGK (SGK1) (Homo sapiens, UniProt O00141)", "T2 construct": "IC50; other: SGK (SGK1); other: 10 μM, average of duplicates; SGK (SGK1)", "T2 sequence (O00141 whole entry S422D, form open)": "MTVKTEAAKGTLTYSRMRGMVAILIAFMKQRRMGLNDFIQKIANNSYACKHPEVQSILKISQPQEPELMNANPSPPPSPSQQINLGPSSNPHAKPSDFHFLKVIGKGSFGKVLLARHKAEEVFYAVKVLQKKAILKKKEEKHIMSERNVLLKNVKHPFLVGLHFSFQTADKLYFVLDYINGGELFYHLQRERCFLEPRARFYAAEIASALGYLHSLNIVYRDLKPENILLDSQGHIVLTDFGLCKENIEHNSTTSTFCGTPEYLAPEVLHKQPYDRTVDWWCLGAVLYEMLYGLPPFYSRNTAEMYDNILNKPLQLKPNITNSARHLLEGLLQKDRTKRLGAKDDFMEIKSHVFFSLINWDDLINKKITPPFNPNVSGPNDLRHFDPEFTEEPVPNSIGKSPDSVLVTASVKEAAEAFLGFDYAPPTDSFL", "assay": "Kinase screening service (Life Technologies): SGK1", "conditions": "SGK (SGK1)", "experimental": "as §1, §2"}, "SGK (SGK1) [2]": {"system": "SGK (SGK1)", "assay": "Kinase screening service (Life Technologies): SGK1", "conditions": "SGK1 versus SGK2 and SGK3", "experimental": "as §1, §2"}, "AKT1 (PKB alpha)": {"molecular_target": "T3, AKT1 (PKB alpha) (Homo sapiens, UniProt P31749)", "T3 construct": "purchased Life Technologies Corporation (Kinase Screening Service)", "assay": "Kinase screening service: AKT1", "conditions": "average of duplicates", "experimental": "as §2"}, "CSNK1G1 (CK1 gamma 1)": {"molecular_target": "T4, CSNK1G1 (CK1 gamma 1) (Homo sapiens, UniProt Q9HCP0)", "T4 construct": "purchased Life Technologies Corporation (Kinase Screening Service)", "T4 sequence (Q9HCP0 whole entry)": "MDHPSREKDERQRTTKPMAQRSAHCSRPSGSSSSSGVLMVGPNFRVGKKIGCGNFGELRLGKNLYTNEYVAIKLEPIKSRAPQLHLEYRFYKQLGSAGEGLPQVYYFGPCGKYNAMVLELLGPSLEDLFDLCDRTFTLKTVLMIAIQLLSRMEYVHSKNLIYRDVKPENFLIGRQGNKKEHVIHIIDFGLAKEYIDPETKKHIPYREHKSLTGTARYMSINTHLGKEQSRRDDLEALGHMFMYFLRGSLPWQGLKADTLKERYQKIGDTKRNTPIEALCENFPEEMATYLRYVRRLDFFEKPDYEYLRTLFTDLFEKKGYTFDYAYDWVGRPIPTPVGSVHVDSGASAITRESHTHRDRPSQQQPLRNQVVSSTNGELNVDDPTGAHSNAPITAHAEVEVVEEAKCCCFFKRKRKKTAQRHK", "assay": "Kinase screening service: CSNK1G1", "conditions": "average of duplicates", "experimental": "as §2"}, "CSNK2A1 (CK2 alpha 1)": {"molecular_target": "T5, CSNK2A1 (CK2 alpha 1) (Homo sapiens, UniProt P68400)", "T5 construct": "purchased Life Technologies Corporation (Kinase Screening Service)", "assay": "Kinase screening service: CSNK2A1", "conditions": "average of duplicates", "experimental": "as §2"}, "CSNK2A2 (CK2 alpha 2)": {"molecular_target": "T6, CSNK2A2 (CK2 alpha 2) (Homo sapiens, UniProt P19784)", "T6 construct": "purchased Life Technologies Corporation (Kinase Screening Service)", "assay": "Kinase screening service: CSNK2A2", "conditions": "average of duplicates", "experimental": "as §2"}, "FLT1 (VEGFR1)": {"molecular_target": "T7, FLT1 (VEGFR1) (Homo sapiens, UniProt P17948)", "T7 construct": "purchased Life Technologies Corporation (Kinase Screening Service)", "assay": "Kinase screening service: FLT1", "conditions": "average of duplicates", "experimental": "as §2"}, "GSK3A (GSK3 alpha)": {"molecular_target": "T8, GSK3A (GSK3 alpha) (Homo sapiens, UniProt P49840)", "T8 construct": "purchased Life Technologies Corporation (Kinase Screening Service)", "T8 sequence (P49840 whole entry)": "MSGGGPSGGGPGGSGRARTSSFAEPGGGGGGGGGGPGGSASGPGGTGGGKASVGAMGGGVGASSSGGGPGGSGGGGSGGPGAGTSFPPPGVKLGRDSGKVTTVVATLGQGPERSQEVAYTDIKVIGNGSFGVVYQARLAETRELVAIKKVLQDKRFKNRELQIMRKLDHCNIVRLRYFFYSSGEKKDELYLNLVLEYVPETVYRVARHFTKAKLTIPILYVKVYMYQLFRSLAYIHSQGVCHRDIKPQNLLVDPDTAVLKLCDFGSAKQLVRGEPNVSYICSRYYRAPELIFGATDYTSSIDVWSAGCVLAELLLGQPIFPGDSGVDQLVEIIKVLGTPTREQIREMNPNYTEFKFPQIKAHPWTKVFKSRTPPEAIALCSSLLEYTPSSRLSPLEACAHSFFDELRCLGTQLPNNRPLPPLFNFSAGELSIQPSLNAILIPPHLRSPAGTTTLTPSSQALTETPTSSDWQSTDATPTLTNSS", "assay": "Kinase screening service: GSK3A", "conditions": "average of duplicates", "experimental": "as §2"}, "MAPK1 (ERK2)": {"molecular_target": "T9, MAPK1 (ERK2) (Homo sapiens, UniProt P28482)", "T9 construct": "purchased Life Technologies Corporation (Kinase Screening Service)", "assay": "Kinase screening service: MAPK1", "conditions": "average of duplicates", "experimental": "as §2"}, "NEK6": {"molecular_target": "T10, NEK6 (Homo sapiens, UniProt Q9HC98)", "T10 construct": "purchased Life Technologies Corporation (Kinase Screening Service)", "assay": "Kinase screening service: NEK6", "conditions": "average of duplicates", "experimental": "as §2"}, "PAK6": {"molecular_target": "T11, PAK6 (Homo sapiens, UniProt Q9NQU5)", "T11 construct": "purchased Life Technologies Corporation (Kinase Screening Service)", "assay": "Kinase screening service: PAK6", "conditions": "average of duplicates", "experimental": "as §2"}, "PDK1 Direct": {"molecular_target": "T12, PDK1 Direct (Homo sapiens, UniProt O15530)", "T12 construct": "purchased Life Technologies Corporation (Kinase Screening Service)", "T12 sequence (O15530 whole entry)": "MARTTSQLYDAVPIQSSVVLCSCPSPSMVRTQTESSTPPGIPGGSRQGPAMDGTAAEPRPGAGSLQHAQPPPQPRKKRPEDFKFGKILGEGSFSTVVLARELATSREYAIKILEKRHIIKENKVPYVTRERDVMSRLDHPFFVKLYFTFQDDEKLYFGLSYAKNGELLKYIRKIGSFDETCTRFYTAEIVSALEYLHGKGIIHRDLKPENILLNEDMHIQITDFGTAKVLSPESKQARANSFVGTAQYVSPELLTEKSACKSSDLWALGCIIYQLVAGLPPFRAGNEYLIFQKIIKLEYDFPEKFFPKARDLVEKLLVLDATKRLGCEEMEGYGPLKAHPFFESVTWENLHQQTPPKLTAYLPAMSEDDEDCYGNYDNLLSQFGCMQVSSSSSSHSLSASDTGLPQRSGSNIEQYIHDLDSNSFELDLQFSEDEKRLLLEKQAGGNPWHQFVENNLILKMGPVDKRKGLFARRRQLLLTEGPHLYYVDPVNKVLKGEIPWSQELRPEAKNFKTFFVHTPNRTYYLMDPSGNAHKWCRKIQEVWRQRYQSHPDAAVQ", "assay": "Kinase screening service: PDK1 Direct", "conditions": "average of duplicates", "experimental": "as §2"}, "PDK1": {"molecular_target": "T13, PDK1 (Homo sapiens, UniProt O15530)", "T13 construct": "purchased Life Technologies Corporation (Kinase Screening Service)", "T13 sequence (O15530 whole entry)": "as above", "assay": "Kinase screening service: PDK1", "conditions": "average of duplicates", "experimental": "as §2"}, "PHKG1": {"molecular_target": "T14, PHKG1 (Homo sapiens, UniProt Q16816)", "T14 construct": "purchased Life Technologies Corporation (Kinase Screening Service)", "assay": "Kinase screening service: PHKG1", "conditions": "average of duplicates", "experimental": "as §2"}, "PRKCH (PKC eta)": {"molecular_target": "T15, PRKCH (PKC eta) (Homo sapiens, UniProt P24723)", "T15 construct": "purchased Life Technologies Corporation (Kinase Screening Service)", "assay": "Kinase screening service: PRKCH", "conditions": "average of duplicates", "experimental": "as §2"}, "RPS6KA4 (MSK2)": {"molecular_target": "T16, RPS6KA4 (MSK2) (Homo sapiens, UniProt O75676)", "T16 construct": "purchased Life Technologies Corporation (Kinase Screening Service)", "assay": "Kinase screening service: RPS6KA4", "conditions": "average of duplicates", "experimental": "as §2"}, "STK22D (TSSK1)": {"molecular_target": "T17, STK22D (TSSK1) (Homo sapiens, UniProt Q9BXA7)", "T17 construct": "purchased Life Technologies Corporation (Kinase Screening Service)", "assay": "Kinase screening service: STK22D", "conditions": "average of duplicates", "experimental": "as §2"}, "TAOK2 (TAO1)": {"molecular_target": "T18, TAOK2 (TAO1) (Homo sapiens, UniProt Q9UL54)", "T18 construct": "purchased Life Technologies Corporation (Kinase Screening Service)", "assay": "Kinase screening service: TAOK2", "conditions": "average of duplicates", "experimental": "as §2"}, "TBK1": {"molecular_target": "T19, TBK1 (Homo sapiens, UniProt Q9UHD2)", "T19 construct": "purchased Life Technologies Corporation (Kinase Screening Service)", "assay": "Kinase screening service: TBK1", "conditions": "average of duplicates", "experimental": "as §2"}, "[3]": {"molecular_target": "T20, PIK3CA/PIK3R1 (p110 alpha/p85 alpha) (Homo sapiens, UniProt P42336)", "T20 construct": "purchased Life Technologies Corporation (Kinase Screening Service)", "assay": "Kinase screening service: PIK3CA/PIK3R1", "conditions": "average of duplicates", "experimental": "as §2"}, "[4]": {"molecular_target": "T21, PIK3CD/PIK3R1 (p110 delta/p85 alpha) (Homo sapiens, UniProt O00329)", "T21 construct": "purchased Life Technologies Corporation (Kinase Screening Service)", "assay": "Kinase screening service: PIK3CD/PIK3R1", "conditions": "average of duplicates", "experimental": "as §2"}, "PIK3CG (p110 gamma)": {"molecular_target": "T22, PIK3CG (p110 gamma) (Homo sapiens, UniProt P48736)", "T22 construct": "purchased Life Technologies Corporation (Kinase Screening Service)", "T22 sequence (P48736 whole entry)": "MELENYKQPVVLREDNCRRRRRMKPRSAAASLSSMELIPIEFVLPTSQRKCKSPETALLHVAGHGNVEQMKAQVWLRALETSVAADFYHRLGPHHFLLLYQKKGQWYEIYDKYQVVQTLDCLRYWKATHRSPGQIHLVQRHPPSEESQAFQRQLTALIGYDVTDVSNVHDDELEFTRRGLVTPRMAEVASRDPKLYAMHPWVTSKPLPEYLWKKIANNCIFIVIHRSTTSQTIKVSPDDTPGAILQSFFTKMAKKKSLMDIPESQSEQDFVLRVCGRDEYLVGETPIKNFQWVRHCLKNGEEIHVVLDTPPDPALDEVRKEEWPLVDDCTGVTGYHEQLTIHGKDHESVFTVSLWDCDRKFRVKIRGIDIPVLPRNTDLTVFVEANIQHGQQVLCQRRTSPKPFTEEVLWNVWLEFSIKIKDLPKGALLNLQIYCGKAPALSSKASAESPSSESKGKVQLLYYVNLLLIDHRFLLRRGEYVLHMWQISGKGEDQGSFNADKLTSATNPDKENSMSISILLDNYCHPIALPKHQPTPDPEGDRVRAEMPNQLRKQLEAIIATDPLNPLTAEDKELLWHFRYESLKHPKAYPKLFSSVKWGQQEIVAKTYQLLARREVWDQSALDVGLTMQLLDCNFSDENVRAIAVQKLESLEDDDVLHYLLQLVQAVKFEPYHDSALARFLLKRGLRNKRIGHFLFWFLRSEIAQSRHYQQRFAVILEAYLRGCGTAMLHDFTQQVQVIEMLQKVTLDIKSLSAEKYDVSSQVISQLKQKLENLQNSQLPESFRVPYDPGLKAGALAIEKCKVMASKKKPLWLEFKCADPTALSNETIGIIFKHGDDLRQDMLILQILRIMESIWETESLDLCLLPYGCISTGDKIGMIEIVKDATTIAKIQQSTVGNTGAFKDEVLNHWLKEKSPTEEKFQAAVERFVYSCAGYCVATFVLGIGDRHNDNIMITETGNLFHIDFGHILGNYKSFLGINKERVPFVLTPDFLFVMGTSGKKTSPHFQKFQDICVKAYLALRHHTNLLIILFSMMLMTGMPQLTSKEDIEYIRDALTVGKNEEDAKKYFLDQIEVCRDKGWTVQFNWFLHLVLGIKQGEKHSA", "assay": "Kinase screening service: PIK3CG", "conditions": "average of duplicates", "experimental": "as §2"}, "MKNK2 (MNK2)": {"molecular_target": "T23, MKNK2 (MNK2) (Homo sapiens, UniProt Q9HBH9)", "T23 construct": "purchased Life Technologies Corporation (Kinase Screening Service)", "T23 sequence (Q9HBH9 whole entry)": "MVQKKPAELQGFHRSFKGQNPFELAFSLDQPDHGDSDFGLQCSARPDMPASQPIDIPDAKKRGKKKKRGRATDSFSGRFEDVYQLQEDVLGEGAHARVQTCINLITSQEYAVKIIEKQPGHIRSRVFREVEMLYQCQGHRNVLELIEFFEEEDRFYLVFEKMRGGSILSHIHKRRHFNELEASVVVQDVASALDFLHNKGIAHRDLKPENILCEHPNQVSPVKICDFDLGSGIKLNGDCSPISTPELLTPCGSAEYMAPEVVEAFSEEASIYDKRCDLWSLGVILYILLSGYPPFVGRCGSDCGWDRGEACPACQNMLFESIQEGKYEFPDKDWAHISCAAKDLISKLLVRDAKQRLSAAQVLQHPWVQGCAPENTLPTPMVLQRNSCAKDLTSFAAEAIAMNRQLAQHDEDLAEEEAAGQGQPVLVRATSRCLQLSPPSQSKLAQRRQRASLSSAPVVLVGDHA", "assay": "Kinase screening service: MKNK2", "conditions": "average of duplicates", "experimental": "as §2"}, "PLK4": {"molecular_target": "T24, PLK4 (Homo sapiens, UniProt O00444)", "T24 construct": "purchased Life Technologies Corporation (Kinase Screening Service)", "T24 sequence (O00444 whole entry)": "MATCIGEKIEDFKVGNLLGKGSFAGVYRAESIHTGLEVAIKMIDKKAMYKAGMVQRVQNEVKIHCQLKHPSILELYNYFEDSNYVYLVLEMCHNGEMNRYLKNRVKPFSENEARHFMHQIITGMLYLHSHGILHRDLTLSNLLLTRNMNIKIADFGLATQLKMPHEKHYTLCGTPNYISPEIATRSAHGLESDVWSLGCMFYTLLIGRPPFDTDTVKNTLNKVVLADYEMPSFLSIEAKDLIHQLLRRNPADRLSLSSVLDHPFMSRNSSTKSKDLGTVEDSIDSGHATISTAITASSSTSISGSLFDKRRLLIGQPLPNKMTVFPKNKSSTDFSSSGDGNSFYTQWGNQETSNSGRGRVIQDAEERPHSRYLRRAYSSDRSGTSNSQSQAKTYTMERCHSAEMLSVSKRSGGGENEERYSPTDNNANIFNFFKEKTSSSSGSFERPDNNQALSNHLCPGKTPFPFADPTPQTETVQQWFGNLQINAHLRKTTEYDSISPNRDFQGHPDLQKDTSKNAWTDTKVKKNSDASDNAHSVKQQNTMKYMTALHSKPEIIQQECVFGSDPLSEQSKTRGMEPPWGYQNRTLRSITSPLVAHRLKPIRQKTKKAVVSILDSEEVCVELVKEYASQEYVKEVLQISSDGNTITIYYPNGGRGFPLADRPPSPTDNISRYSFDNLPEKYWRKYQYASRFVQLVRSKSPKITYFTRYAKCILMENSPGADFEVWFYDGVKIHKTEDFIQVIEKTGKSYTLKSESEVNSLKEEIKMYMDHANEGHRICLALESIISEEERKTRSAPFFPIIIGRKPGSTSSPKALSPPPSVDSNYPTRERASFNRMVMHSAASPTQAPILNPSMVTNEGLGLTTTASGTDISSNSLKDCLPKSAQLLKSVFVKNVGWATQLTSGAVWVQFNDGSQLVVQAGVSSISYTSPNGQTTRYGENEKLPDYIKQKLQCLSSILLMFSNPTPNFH", "assay": "Kinase screening service: PLK4", "conditions": "average of duplicates", "experimental": "as §2"}, "TEC": {"molecular_target": "T25, TEC (Homo sapiens, UniProt P42680)", "T25 construct": "purchased Life Technologies Corporation (Kinase Screening Service)", "assay": "Kinase screening service: TEC", "conditions": "average of duplicates", "experimental": "as §2"}, "ULK2": {"molecular_target": "T26, ULK2 (Homo sapiens, UniProt Q8IYT8)", "T26 construct": "purchased Life Technologies Corporation (Kinase Screening Service)", "assay": "Kinase screening service: ULK2", "conditions": "average of duplicates", "experimental": "as §2"}, "WNK3": {"molecular_target": "T27, WNK3 (Homo sapiens, UniProt Q9BYP7)", "T27 construct": "purchased Life Technologies Corporation (Kinase Screening Service)", "assay": "Kinase screening service: WNK3", "conditions": "average of duplicates", "experimental": "as §2"}}}
{"smiles": "O=C(CCCCC1CCSS1)NC1CCC(Nc2cccc3cnccc23)CC1", "note": "(centres unmarked) [PT109, 5-(1,2-dithiolan-3-yl)-N-(4-(isoquinolin-5-ylamino)cyclohexyl) pentanamide]", "values": [{"measurement": "inhibition at 10 µM", "setting": "MAPK10 (JNK3)", "result": 90, "unit": "%"}, {"measurement": "% Inhibition", "setting": "SGK (SGK1) [1]; 10 μM, average of duplicates", "result": 91, "unit": "%"}, {"measurement": "IC50", "setting": "SGK (SGK1) [1]", "result": 1340, "unit": "nM"}, {"measurement": "specificity for SGK1", "setting": "SGK (SGK1) [2]", "result": "better specificity for SGK1"}, {"measurement": "inhibition at 10 µM", "setting": "AKT1 (PKB alpha)", "result": 22, "unit": "%"}, {"measurement": "inhibition at 10 µM", "setting": "CSNK1G1 (CK1 gamma 1)", "result": 9, "unit": "%"}, {"measurement": "inhibition at 10 µM", "setting": "CSNK2A1 (CK2 alpha 1)", "result": 14, "unit": "%"}, {"measurement": "inhibition at 10 µM", "setting": "CSNK2A2 (CK2 alpha 2)", "result": 11, "unit": "%"}, {"measurement": "inhibition at 10 µM", "setting": "FLT1 (VEGFR1)", "result": 3, "unit": "%"}, {"measurement": "inhibition at 10 µM", "setting": "GSK3A (GSK3 alpha)", "result": 41, "unit": "%"}, {"measurement": "inhibition at 10 µM", "setting": "MAPK1 (ERK2)", "result": 4, "unit": "%"}, {"measurement": "inhibition at 10 µM", "setting": "NEK6", "result": 3, "unit": "%"}, {"measurement": "inhibition at 10 µM", "setting": "PAK6", "result": -16, "unit": "%"}, {"measurement": "inhibition at 10 µM", "setting": "PDK1 Direct", "result": 51, "unit": "%"}, {"measurement": "inhibition at 10 µM", "setting": "PDK1", "result": 5, "unit": "%"}, {"measurement": "inhibition at 10 µM", "setting": "PHKG1", "result": 10, "unit": "%"}, {"measurement": "inhibition at 10 µM", "setting": "PRKCH (PKC eta)", "result": -17, "unit": "%"}, {"measurement": "inhibition at 10 µM", "setting": "RPS6KA4 (MSK2)", "result": 28, "unit": "%"}, {"measurement": "inhibition at 10 µM", "setting": "STK22D (TSSK1)", "result": -2, "unit": "%"}, {"measurement": "inhibition at 10 µM", "setting": "TAOK2 (TAO1)", "result": -6, "unit": "%"}, {"measurement": "inhibition at 10 µM", "setting": "TBK1", "result": 10, "unit": "%"}, {"measurement": "inhibition at 10 µM", "setting": "[3]", "result": 56, "unit": "%"}, {"measurement": "inhibition at 10 µM", "setting": "[4]", "result": 48, "unit": "%"}, {"measurement": "inhibition at 10 µM", "setting": "PIK3CG (p110 gamma)", "result": 9, "unit": "%"}, {"measurement": "inhibition at 10 µM", "setting": "MKNK2 (MNK2)", "result": 26, "unit": "%"}, {"measurement": "inhibition at 10 µM", "setting": "PLK4", "result": 35, "unit": "%"}, {"measurement": "inhibition at 10 µM", "setting": "TEC", "result": 26, "unit": "%"}, {"measurement": "inhibition at 10 µM", "setting": "ULK2", "result": 4, "unit": "%"}, {"measurement": "inhibition at 10 µM", "setting": "WNK3", "result": 7, "unit": "%"}]}
